From EPA's ToxRefDB 2 come the findings set out here.

What is called LOAEL is the lowest dose or exposure tested at which an adverse effect was seen. For orientation: NOAEL means the highest dose or exposure tested at which no adverse effect was seen.

The test system of data set [1] is rat. Particulars: Combined chronic toxicity/carcinogenicity, wistar, Oral, Feed, dose end: 104 week, group: systemic.
Data set [2] concerns mouse. Particulars: Subchronic oral toxicity in rodents, other, Feed, dose end: 13 week, group: systemic.
Data set [3] deals with rat. Particulars: Subchronic oral toxicity in rodents, wistar, Feed, dose end: 13 week, group: systemic.
Data set [4] concerns mouse. Particulars: Combined chronic toxicity/carcinogenicity, b6c3f1, Oral, Feed, dose end: 2 year, group: systemic.
The test system of data set [5] is rat. Particulars: Combined chronic toxicity/carcinogenicity, sprague dawley, Oral, Feed, dose end: 2 year, group: systemic.
Data set [6] relates to rat. Particulars: Multigenerational reproductive toxicity study, sprague dawley, Oral, [Not Specified], dose end: 2 generation.
Data set [7] concerns rabbit. Particulars: Prenatal developmental toxicity study, new zealand white, Oral, Gavage/Intubation, dose end: 19 GD.
For data set [8], the system named is rabbit. Particulars: Prenatal developmental toxicity study, new zealand white, Oral, Gavage/Intubation, dose end: 19 GD. This is another data set of the same source.
Data set [9] deals with rat. Particulars: Combined chronic toxicity/carcinogenicity, sprague dawley, Oral, Feed, dose end: 2 year, group: systemic. This is another data set of the same source.
For data set [10], the system named is rat. Particulars: Subchronic oral toxicity in rodents, other, Feed, dose end: 13 week, group: systemic.
For data set [11], the system named is rat. Particulars: Multigenerational reproductive toxicity study, Sprague Dawley, Oral, Feed, dose end: 2 generation.
Data set [12] deals with dog. Particulars: Combined chronic toxicity/carcinogenicity, beagle, Oral, Feed, dose end: 24 month, group: systemic.
In data set [13] the test system is rat. Particulars: Combined chronic toxicity/carcinogenicity, sprague dawley, Oral, Feed, dose end: 25 month, group: systemic.
For data set [14], the system named is rat. Particulars: Prenatal developmental toxicity study, other, Oral, Gavage/Intubation, dose end: 15 GD.
The test system of data set [15] is mouse. Particulars: Carcinogenicity, cd1, Oral, [Not Specified], dose end: 99 week, group: systemic.
The test system of data set [16] is rat. Particulars: Subchronic oral toxicity in rodents, sprague dawley, Feed, dose end: 13 week, group: systemic.
In data set [17] the test system is rat. Particulars: Subchronic oral toxicity in rodents, wistar, Feed, dose end: 6 week, group: systemic.
Where [18] appears, read: systemic / hematology / erythrocyte (rbc) count differential / erythrocyte (rbc) + systemic / hematology / hematocrit (hct) / hematocrit (….
Setting [19] is: systemic / clinical chemistry / urea nitrogen / urea nitrogen.
The mark [20] stands for this setting: systemic / clinical chemistry / urea nitrogen / urea nitrogen + systemic / clinical chemistry / alanine aminotransferase (alt/sgpt) / ….
Where [21] appears, read: systemic / in life observation / body weight / body weight gain.
The mark [22] stands for this setting: systemic / in life observation / body weight / body weight gain + systemic / clinical chemistry / cholesterol / cholesterol.
Where [23] appears, read: systemic / in life observation / mortality / mortality + systemic / in life observation / body weight / body weight.
[24] abbreviates: systemic / pathology microscopic / liver / hyperplasia.
The mark [25] stands for this setting: systemic / pathology microscopic / liver / hyperplasia + systemic / in life observation / body weight / body weight + systemic / pathology ….
The mark [26] stands for this setting: group: offspring, developmental / offspring survival late / viability index / viability index + systemic / in life observation / body weight / offspring (pup….
Setting [27] is: group: parental, systemic / in life observation / body weight / body weight + systemic / in life observation / body weight / body weight gain + systemic / ….
[28] abbreviates: group: developmental, developmental / developmental malformation / brain / dilated cerebral ventricle + developmental / developmental malformation / brain / ….
[29] abbreviates: group: maternal, systemic / in life observation / body weight / body weight + systemic / in life observation / body weight / body weight gain + reproductive….
Where [30] appears, read: group: developmental, developmental / developmental malformation / brain / hydrocephaly.
[31] abbreviates: group: maternal, reproductive / reproductive performance / postimplantation loss / postimplantation loss.
Setting [32] is: group: maternal, reproductive / reproductive performance / postimplantation loss / postimplantation loss + reproductive / reproductive performance / aborted….
The mark [33] stands for this setting: group: offspring, systemic / in life observation / body weight / offspring (pup) weight + developmental / offspring survival late / [other] / [other] + ….
Setting [34] is: group: parental, systemic / in life observation / body weight / body weight + systemic / organ weight / adrenal gland / absolute.
Setting [35] is: systemic / pathology microscopic / kidney / cellular alteration + systemic / pathology microscopic / kidney / pigmentation.
The mark [36] stands for this setting: systemic / pathology microscopic / kidney / cellular alteration + systemic / pathology microscopic / kidney / pigmentation + systemic / ….
[37] abbreviates: systemic / clinical chemistry / alanine aminotransferase (alt/sgpt) / alanine aminotransferase (alt/sgpt) + systemic / clinical chemistry / ….
Where [38] appears, read: systemic / pathology microscopic / liver / hypertrophy.
Where [39] appears, read: group: developmental, developmental / developmental malformation / eye / anophthalmia + developmental / developmental malformation / eye / microphthalmia.
Where [40] appears, read: group: maternal, systemic / in life observation / body weight / body weight gain.
[41] abbreviates: systemic / in life observation / body weight / body weight gain + systemic / in life observation / mortality / mortality + systemic / organ ….
Where [42] appears, read: systemic / clinical chemistry / albumin / albumin + systemic / clinical chemistry / protein / protein.
Where [43] appears, read: systemic / clinical chemistry / cholesterol / cholesterol + systemic / in life observation / body weight / body weight + systemic / in life ….
[44] abbreviates: systemic / in life observation / body weight / body weight gain + systemic / clinical chemistry / protein / protein + systemic / clinical ….

Consider `C[N+](C)(C)CCO.O=c1ccc([O-])n[nH]1`, for which the LEL in data set [1] (setting [18]) was 18.1 mg/kg/day; in data set [2] (setting [19]), 5620 mg/kg/day; in [3] (setting [22]), 4760 mg/kg/day. Besides, the NEL is under 18.1 mg/kg/day in data set [1] (setting [18]), 1100 mg/kg/day in [2] (setting [20]) and 1060 mg/kg/day in data set [3] (setting [22]). The LOAEL in data set [1] (systemic / in life observation / body weight / body weight + systemic / in life observation / body weight / body weight gain) stood at 1960 mg/kg/day; in [2] (setting [19]), 5620 mg/kg/day; in data set [3] (setting [21]), 4760 mg/kg/day. For the same compound, the NOAEL in data set [1] (systemic / in life observation / body weight / body weight + systemic / in life observation / body weight / body weight gain + systemic / …) amounted to 183 mg/kg/day; in [2] (setting [20]) it was 1100 mg/kg/day; in [3] (setting [22]) it was 1060 mg/kg/day.

`C1CC[CH]([Sn+]([CH]2CCCCC2)[CH]2CCCCC2)CC1.[OH-]` [Cyhexatin]: the LOAEL in [4] (systemic / in life observation / mortality / mortality) is 6 mg/kg/day; in data set [5] (setting [24]) it was 1 mg/kg/day; in data set [6] (setting [26]), over 6 mg/kg/day; in data set [6] (setting [27]) it was over 6 mg/kg/day; in data set [7] (setting [28]) it was over 3 mg/kg/day; in data set [7] (group: maternal, systemic / in life observation / body weight / body weight + systemic / in life observation / body weight / body weight gain) it was 3 mg/kg/day. Further, the LOAEL in data set [8] (setting [30]) was over 3 mg/kg/day; in [8] (setting [31]), 1 mg/kg/day. The LEL was 6 mg/kg/day in data set [4] (setting [23]); 1 mg/kg/day in data set [5] (setting [25]); 6 mg/kg/day in data set [6] (setting [26]); 0.5 mg/kg/day in data set [6] (group: parental, systemic / in life observation / body weight / body weight + systemic / in life observation / body weight / body weight gain); 0.75 mg/kg/day in data set [7] (setting [28]); 3 mg/kg/day in [7] (setting [29]). In addition, the values for the LEL in data set [8] (setting [30]) and in [8] (setting [31]) were 3 mg/kg/day and 1 mg/kg/day, respectively. Besides, the NEL in [4] (setting [23]) was 3 mg/kg/day; in [5] (setting [25]) it was under 1 mg/kg/day; in data set [6] (setting [26]), 0.5 mg/kg/day; in data set [6] (setting [27]), 0.1 mg/kg/day; in [7] (setting [28]), under 0.75 mg/kg/day; in [7] (setting [29]), 0.75 mg/kg/day. Moreover, the NEL in [8] (setting [30]) was 1 mg/kg/day; in [8] (setting [32]), 0.5 mg/kg/day. Further, the NOAEL was 3 mg/kg/day in data set [4] (setting [23]); under 1 mg/kg/day in data set [5] (setting [24]); at least 6 mg/kg/day in data set [6] (setting [26]); at least 6 mg/kg/day in data set [6] (setting [27]); at least 3 mg/kg/day in data set [7] (setting [28]); 0.75 mg/kg/day in data set [7] (setting [29]). For the same compound, the NOAEL was at least 3 mg/kg/day in [8] (setting [30]) and 0.5 mg/kg/day in data set [8] (setting [32]).

Take `CNC(=O)ON=C(C)SC` [Methomyl]: the NEL in [9] (setting [18]) is 5 mg/kg/day; in data set [10] (setting [21]) it was 2.5 mg/kg/day; in data set [11] (setting [33]), under 6.9 mg/kg/day; in data set [11] (setting [34]) it was under 6.9 mg/kg/day; in data set [12] (setting [36]) it was 2.5 mg/kg/day. For the same compound, the LOAEL in data set [9] (setting [21]) worked out at 20 mg/kg/day; in data set [10] (systemic / in life observation / body weight / body weight gain + systemic / pathology microscopic / bone marrow / hyperplasia), 12.5 mg/kg/day; in data set [11] (group: offspring, systemic / in life observation / body weight / offspring (pup) weight + developmental / offspring survival late / [other] / [other]), 56.5 mg/kg/day; in data set [11] (group: parental, systemic / in life observation / body weight / body weight + systemic / in life observation / food consumption / food consumption) it was 36.9 mg/kg/day; in [12] (setting [35]), 10 mg/kg/day. Further, the NOAEL is 5 mg/kg/day in data set [9] (setting [21]); 2.5 mg/kg/day in data set [10] (setting [21]); 6.9 mg/kg/day in data set [11] (group: offspring, systemic / in life observation / body weight / offspring (pup) weight + developmental / offspring survival late / lactation index / …); 4.6 mg/kg/day in [11] (group: parental, systemic / in life observation / body weight / body weight + systemic / in life observation / food consumption / food consumption + systemic…); 2.5 mg/kg/day in data set [12] (setting [36]). For the same compound, the LEL turned out to be 20 mg/kg/day in data set [9] (systemic / in life observation / body weight / body weight gain + systemic / hematology / erythrocyte (rbc) count differential / erythrocyte…); 12.5 mg/kg/day in [10] (systemic / in life observation / body weight / body weight gain + systemic / pathology microscopic / bone marrow / hyperplasia + systemic / …); 6.9 mg/kg/day in data set [11] (setting [33]); 6.9 mg/kg/day in data set [11] (setting [34]); 10 mg/kg/day in data set [12] (setting [35]).

Take `CCCN(CCC)c1c([N+](=O)[O-])cc(C(F)(F)F)c(N)c1[N+](=O)[O-]` [Prodiamine]: the LOAEL in data set [13] (setting [37]) is 37 mg/kg/day; in [14] (setting [39]), 100 mg/kg/day; in data set [14] (setting [40]) it was 1000 mg/kg/day; in [15] (setting [41]), 750 mg/kg/day; in [16] (setting [43]), 269 mg/kg/day; in [17] (setting [21]), 681 mg/kg/day. Moreover, the NOAEL in [13] (setting [37]) is 9.1 mg/kg/day; in [14] (setting [39]), under 100 mg/kg/day; in data set [14] (setting [40]) it was 300 mg/kg/day; in [15] (setting [41]), 75 mg/kg/day; in [16] (setting [43]) it was 80.1 mg/kg/day; in data set [17] (setting [44]), 63 mg/kg/day. For the same compound, the LEL in [13] (setting [38]) turned out to be 1.8 mg/kg/day; in data set [14] (setting [39]), 100 mg/kg/day; in [14] (setting [40]), 1000 mg/kg/day; in [15] (systemic / in life observation / body weight / body weight gain + systemic / organ weight / kidney / nos + systemic / in life observation / …), 75 mg/kg/day; in data set [16] (setting [42]), 26.7 mg/kg/day; in data set [17] (systemic / clinical chemistry / protein / protein), 63 mg/kg/day. The NEL in data set [13] (setting [38]) was under 1.8 mg/kg/day; in [14] (setting [39]) it was under 100 mg/kg/day; in [14] (setting [40]), 300 mg/kg/day; in data set [15] (setting [41]), 7.5 mg/kg/day; in data set [16] (setting [42]) it was under 26.7 mg/kg/day; in data set [17] (setting [44]) it was 16.8 mg/kg/day.
